Measured values: patent US8119657B2, “Enantiomeric compositions of 2-amino-1-(2-isopropylpyrazolo[1,5-α]pyridin-3-yl)propan-1-one and related methods” (MediciNova, Inc., priority 2009, dated 2012)
“Also recorded” adds a separate entry of the source. Where two headings read alike, the source gives them in different places. Marks after values point to notes of the source that are not given here.

Key:
[1] = Rat pharmacokinetics of the enantiomers after oral dosing of racemic AV1013; type: in vivo; conditions: for Cmax: po
Protocol: Three male Sprague-Dawley rats were dosed orally via gavage with 25 mg/kg racemic AV1013 dissolved in water. Serial blood samples were collected from the tail vein at 5, 15, and 30 min, 1, 3, and 6 hours post dosing. Samples were processed for plasma via centrifugation and plasma samples were stored frozen prior to analysis.
A sensitive and specific chiral HPLC/MS/MS bioanalytical method for the detection of (S)-AV1013 and (R)-AV1013 enantiomers in rat and dog plasma was utilized. AV1013 enantiomers and the internal standard (AV1040, an analog of AV1013) were isolated from plasma by protein precipitation induced by acetonitrile. After centrifugation to sediment the proteins, the supernatant fractions were analyzed by high performance liquid chromatography (LC) in conjunction with a triple quadrupole mass spectrometer that used electrospray ionization in tandem with positive ionization (MS/MS) according to the conditions below. The LLOQ (lower level of quantitation) was typically <3 ng/mL.
Analysis of pharmacokinetic parameters was performed for each enantiomer via LC/MS bioanalytics and WinNonlin™ analysis (version 4.0.1; Pharsight Corp., Mountain View, Calif.), commercial software designed for the analysis of PK data. The PK modeling was based on a non-compartmental model with gradual input into the central compartment. Computation of the area under the curve (AUC) was based on the sum of trapezoidal areas for the plotted plasma concentration-time data. AUC and associated parameters were estimated by log-linear regression analysis of the terminal phase.

[2] = Bioavailability and duration of action of (S)-AV1013
[3] = Chiral and chemical stability in solution and on storage; type: physicochemical; conditions: for racemization in dosing solutions and bioanalytical solutions: saline vehicle, DMSO:methanol, 1:1
Source text: Without ascribing to any particular theory, the present inventors believe that the facile separation of enantiomers using the N-protected racemate of AV1013 is probably due to the greater stability of the racemate as well as the separate enantiomers in protected form. […] Unstability also stems from the ability of the free base to self condense. Because self-condensation is promoted in concentrated solutions, it is desirable to avoid highly concentrated solutions of the free base form of optically active AV1013. Likewise, the free base form of racemic AV1013 or its hydrochloride salt are also unstable, precluding their use as precursors to obtaining (S)-AV1013 as a free base or its hydrochloride salt in high yield and/or high purity.
Thus, it is often desirable to re-purify the de-protected product using purification techniques known in the art. For example, any one or more of the methods described above for separating chiral molecules, such as, chromatography (e.g., HPLC, GC, and SFC), crystallization, fractional crystallization, and the like may be used for re-purification. An exemplary method is recrystallization. Purification by recrystallization allows separation of the desired (S)-enantiomer in high purity, such that the overall reaction sequence including isolation of the desired (S)-enantiomer requires only a single chromatographic step (i.e., the chiral separation). Recrystallization can be carried out in any of a number of single or mixed solvent systems including alcohols, ethers, esters, nitriles, halogenated hydrocarbons, amides and aqueous mixtures thereof. Suitable solvents include methanol, ethanol, propanol, iso-propanol, acetone, tetrahyrofuran, methyl ethyl ketone, methyl isobutyl ketone, ethyl acetate, amyl acetate, acetonitrile, diethyl ether, methyl tert-butyl ether, dichloromethane, dichloroethane, chloroform, dimethylformamide, and combinations thereof. Illustrative mixed solvent systems used to recrystallize (S)-AV1013 are iso-propanol/methyl tert-butyl ether and ethanol/methyl tert-butyl ether.
The five-step route provided a 15% overall yield of (S)-AV1013.HCl. The chiral separation, by SFC chromatography, is the only chromatographic step required. Hydrolysis of the N-protected (S)-AV1013, followed by recrystallization from iso-propanol/methyl tert-butyl ether provided (S)-AV1013.HCl in greater than 99% chemical purity and greater than 97% S-enantiomer (greater than 94% enantiomeric excess (ee)) by chiral HPLC, as determined from the equation ee=[|R−S^51÷(R+S)]×100 ee=[|R−S|÷(R+S)]×100. […] Even under optimal storage and handling conditions to minimize exposure to moisture, a small degree of racemization (i.e., approximately 2%) was observed. Recrystallization was effective to improve enantiomeric purity to arrive at a product having an illustrative chiral purity as described above. […] The recrystallized (S)-AV 1013.HCl contained approximately 25 mole percent alcohol (less than about 10% by weight) even when dried at 50° C. Thus, it appears that the resultant product is formed as a solvate under the recrystallization and drying conditions employed.

formalin paw model = assay: Inflammatory pain model (formalin paw model) in mice; type: in vivo; conditions: for % Change from Control / Licking Score (Mean +/− SEM): mice
Protocol: The model employed is described in detail by Wheeler-Aceto et al (Psychopharmacology, 104, p 35-44, (1991)). Briefly, mice were given an intraplantar injection of 5% formalin (25 μl) into the posterior left paw. […] Mice were briefly observed at 1 minute intervals between 15 and 50 minutes after the injection of formalin and the number of times mice were observed licking the injected paw was recorded. 10 mice were studied in each group. The test was performed blind.
AV1013-S was evaluated at 3 doses (10, 25 and 50 mg/kg), administered p.o. 60 minutes before the test (i.e. 45 minutes before formalin), and compared with a vehicle control group. Gabapentin (300 mg/kg p.o.), administered under the same experimental conditions, was used as reference substance. The experiment therefore included 5 groups.
Data were analyzed by comparing treated groups with vehicle control using unpaired Mann-Whitney U tests.

Rolipram binding site = assay: Inhibition of binding at the Rolipram binding site; conditions: 10 uM
[4] = 10 mg/kg p.o. 60 min before the test
[5] = 25 mg/kg p.o. 60 min before the test

## CC(C)c1nn2ccccc2c1C(=O)[C@H](C)N [(S)-AV1013, (S)-2-amino-1-(2-isopropylpyrazolo[1,5-a]pyridin-3-yl)propan-1-one]
[1]; male, Sprague-Dawley, oral 25 mg/kg racemic AV1013, plasma
  AUC(0-t): 5950 ng·h/mL
[1]; male, Sprague-Dawley, plasma, 25 mg/kg, oral dosing of racemate, rounded values, read-out: calculated area under the curves (AUC)
  AUC: 6000 ng·h/mL
[1]; male, Sprague-Dawley, plasma, 25 mg/kg, oral 25 mg/kg racemic AV1013, plasma, read-out: Cmax
  Cmax: 1260 ng/mL
[1]; male, Sprague-Dawley, plasma, 25 mg/kg, oral dosing of racemate, rounded values, read-out: mean peak plasma levels (Cmax)
  Cmax: 1300 ng/mL
[1]; oral dosing of racemate
  AUC of (S) relative to (R) enantiomer: around 17 fold
  Cmax of (S) relative to (R) enantiomer: at least 3 fold
[2]
  in vivo duration of action: 2 to 24 h
[2]; in vivo, share of the (S)-enantiomer dosed that is bioavailable
  bioavailability: > 70%
[3]; free base (or hydrochloride salt where stated), in solution
  stability / racemization in solution: unstable and racemizes in solution; also recorded: racemizes slowly in solution
[3]
  racemization in dosing solutions and bioanalytical solutions: no detectable interconversion between the enantiomers
[3]; listed as (S)-enantiomer
  racemization in dosing solutions and bioanalytical solutions: no racemization has been documented
Formalin paw model; [4]
  % Change from Control: −16%
  Licking Score (Mean +/− SEM): 13.1 +/− 1.5
Formalin paw model; [5]
  % Change from Control: −16%
  Licking Score (Mean +/− SEM): 13.1 +/− 1.8
Formalin paw model; 50 mg/kg p.o. 60 min before the test, 50 mg/kg
  % Change from Control: −45%
Formalin paw model; 50 mg/kg p.o. 60 min before the test, p < 0.01
  Licking Score (Mean +/− SEM): 8.6 +/− 1.4 *
Formalin paw model; single oral dose of 50 mg/kg
  analgesic/anti-inflammatory activity in mouse formalin paw model (late-phase): demonstrated analgesic/anti-inflammatory activity
Rolipram binding site
  inhibition of the Rolipram binding site: 12%
